Laboratory results from publication PMC2744016, “Adenosine Triphosphate Stimulates Aquifex aeolicus MutL Endonuclease Activity” (PLoS ONE, 2009).

Experiments:
Aae MutL [1] = target: T1, Aae MutL (Aquifex aeolicus, UniProt O67518); assay: filter-binding assay with 3H nucleotide; details: labelled compound; no DNA, ssDNA or dsDNA M13mp18; 10 mM MgCl2, 50 mM NaCl, pH 7.9, room temperature
T1 construct: full-length (C-terminal domain residues 303-425), expressed in E. coli Rosetta (DE3) from pTWIN1 as Mxe GyrA intein fusion, intein tag cleaved off
T1 sequence (O67518 1-425): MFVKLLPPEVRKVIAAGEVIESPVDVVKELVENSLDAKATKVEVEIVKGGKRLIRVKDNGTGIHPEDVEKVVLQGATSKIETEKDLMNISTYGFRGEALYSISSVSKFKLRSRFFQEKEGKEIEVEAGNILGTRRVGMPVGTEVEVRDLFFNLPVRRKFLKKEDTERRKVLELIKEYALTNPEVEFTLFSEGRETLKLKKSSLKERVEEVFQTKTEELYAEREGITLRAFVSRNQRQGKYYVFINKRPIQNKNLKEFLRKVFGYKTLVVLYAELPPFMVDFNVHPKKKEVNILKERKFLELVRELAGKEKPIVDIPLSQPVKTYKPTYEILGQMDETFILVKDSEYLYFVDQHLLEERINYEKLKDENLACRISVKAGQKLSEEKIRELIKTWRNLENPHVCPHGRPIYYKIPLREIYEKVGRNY

Aae MutL [2] = target: T1, Aae MutL; assay: initial rate of supercoiled pBR322 nicking, agarose gel; type: biochemical; details: 1 mM AMPPNP, 1 mM MnSO4, pH 7.6, 37 °C; activator

Structure (SMILES)	filter-binding assay with 3H nucleotide (Aae MutL [1])	initial rate of supercoiled pBR322 nicking, agarose gel (Aae MutL [2])
Nc1ncnc2c1ncn2[C@@H]1O[C@H](COP(=O)(O)OP(=O)(O)O)[C@@H](O)[C@H]1O [ADP]	in the presence of ssDNA MutL binds both ATP and ADP with about equal affinity	
Nc1ncnc2c1ncn2[C@@H]1O[C@H](COP(=O)(O)OP(=O)(O)NP(=O)(O)O)[C@@H](O)[C@H]1O [AMPPNP]		AMPPNP stimulated Aae MutL nicking activity to the same extent as observed with ATP
Nc1ncnc2c1ncn2[C@@H]1O[C@H](COP(=O)(O)OP(=O)(O)OP(=O)(O)O)[C@@H](O)[C@H]1O [ATP]	in the presence of ssDNA MutL binds both ATP and ADP with about equal affinity	
